Reference: patent US11434205B2, “Substituted imidazole carboxylate derivatives and the use thereof” (priority 2018, dated 2022)
pEC50: −log10 of the molar value. Like-named read-outs stand apart in the source and are kept apart here.

Legend:
rats [1] = test: Pharmacological characteristics at equivalent doses (2×ED50) in rats; conditions: 2×ED50, tail vein; for Adverse reactions: Red urine (incidence): DMSO solution (DMSO alone 10/10); for Onset time: time of LORR
Experimental: Comparison of Pharmacological Characteristics of the Compounds at Equivalent Doses (2×ED50) in Rats
Adult male Sprague-Dawley rats (250-300 g) were selected for the experiment (n=8). […] The drugs were administered at a dose twice their ED50 through the tail vein of rats in a volume of 0.6 mL and at a rate of 0.1 mL/s. In addition, the time of LORR was recorded as the onset time of anesthesia. […] Furthermore, the duration of the pharmacological effects is sufficient to meet the time requirements for rapid induction of general anesthesia and for diagnostic examinations, some short invasive clinical examinations, or operations.

rats [2] = test: Loss of righting reflexes (LORR) assay in rats, ED50 by up and down method; assay type: in vivo, rat; conditions: Rattus norvegicus, tail vein, class symbols
Experimental: The Anesthetic Activity of the Compounds was Assessed in Rats Using a Loss of Righting Reflexes (LORR) Assay
(§1) Adult male Sprague-Dawley rats (250-300 g) were selected for the experiment. […] The anesthesia effects of the compounds were assessed in rats using a LORR assay and a period >30 s was considered as an indicator of general anesthesia. Then the up and down method was used to determine 50% effective dose (ED50). The drugs were administered through the tail vein of rats in a volume of 0.6 mL and at a rate of 0.1 mL/s.

rats [3] = test system: rats
Experimental: as §1

[4] = test system: secretion of corticosterone, H295R cell line; test: cells; assay type: cell-based; conditions: for pEC50: Homo sapiens, NCI-H295R, read-out: EC50 (Corticosterone)
Experimental: (§2) The Effects of the Compounds on Adrenocortical Function In Vitro Test
(§3) Then secretion of the cortisol and corticosterone in the supernatant, was measured using HPLC-MS/MS method to determine whether the compounds of the present invention had adrenotoxic potential.

[5] = test system: secretion of cortisol, H295R cell line; test: cells; assay type: cell-based; conditions: for pEC50: Homo sapiens, NCI-H295R, read-out: EC50 (Cortisol)
Experimental: as §2, §3

rats [6] = test system: rats; remark: listed apart in the source
Experimental: Pharmacological Effects of the Compounds on Continuous Infusion in Rats
Adult male Sprague-Dawley rats with body weight ranging from 250 to 300 gm were selected for continuous infusion test. […] Time to recovery of righting reflex from stopping infusion, and time to fully awake from stopping infusion were recorded.

[7] = continuous tail vein infusion at 2×MIR, LORR maintained 1 hour, Table D4
[8] = H295R cell line, 0.1-10000 nM, HPLC-MS/MS, Table D3

SMILES	Righting reflex duration (rats [1]) [min]	Adverse reactions: Red urine (incidence) (rats [1])	Onset time (rats [1]) [min]	ED50 (rats [2]) [mg/kg]	Approximate therapeutic index (rats [3])	Minimal lethal dose (rats [3]) [mg/kg]	Corticosterone as an indicator to determine the presence of inhibition ([4]; H295R, Table A3)	pEC50 [4]	Cortisol as an indicator to determine the presence of inhibition ([5]; H295R, Table A3)	pEC50 [5]	Corticosterone as an indicator to determine the presence of inhibition ([4]; H295R, Table C3)	Cortisol as an indicator to determine the presence of inhibition ([5]; H295R, Table C3)	also measured
CCC1(COC(=O)c2cncn2[C@H](C)c2ccccc2)CC1 [Compound A9]	4.80 ± 1.25	8/8	0.40 ± 0.15	0.1 to 0.5	>13	>5	0	< 5.00	0	< 5.00	–	–	Adverse reactions: Tremor (incidence) (rats [1]; animals affected/animals): 5/8
C[C@H](c1ccccc1)n1cncc1C(=O)OC1(C)CCC1=O (stereo partly drawn) [Compound A13]	2.31 ± 2.14	Red urine (8/8)	0.56 ± 0.12	0.1 to 0.5	>10	>4	0	< 5.00	0	< 5.00	–	–	–
C[C@H](c1ccccc1)n1cncc1C(=O)OCC1(C(F)F)CCC1 [Compound A19]	6.13 ± 2.87	Red urine (8/8)	0.36 ± 0.16	0.1 to 0.5	>10	>5	0	< 5.00	0	< 5.00	–	–	–
C[C@H](c1ccccc1)n1cncc1C(=O)OC1(C2CO2)CCC1 (stereo partly drawn) [Compound A20]	1.90 ± 0.74	Red urine (8/8)	0.11 ± 0.03	0.01 to 0.1	>22	>3	0	< 5.00	0	< 5.00	–	–	–
C[C@H](c1ccccc1)n1cncc1C(=O)OCC1(C2CO2)CCC1 (stereo partly drawn) [Compound A21]	1.75 ± 0.26	Red urine (8/8)	0.27 ± 0.19	0.1 to 0.5	>16	>5	0	< 6.00	0	< 6.00	–	–	Recovery time after stopping infusion (rats [6]; after 1 hour infusion at 2×MIR): 15 to 25 min; Types and incidence of adverse reactions (rats [6]; continuous infusion 2×MIR, in words): No; Onset time (rats [6]; emulsion, continuous infusion at 2×MIR): 3 to 4 min
CCC(=O)C1(OC(=O)c2cncn2[C@H](C)c2ccccc2)CC1 [Compound C16]	1.31 ± 0.95	Red urine (8/8)	0.73 ± 0.23	0.5 to 1	>14	>10	–	< 6.00	–	< 6.00	0	0	–
CCC(C)(C)OC(=O)c1cncn1[C@H](C)c1ccccc1 [Compound C19]	1.26 ± 0.99	Red urine (8/8)	0.45 ± 0.23	0.1 to 0.5	>20	>5	–	< 6.00	–	< 6.00	0	0	–
CSCCSC(=O)c1cncn1[C@H](C)c1ccccc1 [Compound C30]	3.67 ± 1.48	Red urine (8/8)	0.23 ± 0.03	0.5 to 1	>11	>11	–	–	–	< 6.00	0	0	–
C=C=CC1(OC(=O)c2cncn2[C@H](C)c2ccccc2)CSC1 [Compound D28]	5.09 ± 1.89	Red urine (8/8)	0.25 ± 0.06	0.01 to 0.1	>16	>10	–	< 5.00	–	< 5.00	–	–	Onset time (rats [6]; [7]): 3 to 4 min; Recovery time after stopping infusion (rats [6]; [7]): 13 to 16 min; Types and incidence of adverse reactions (rats [6]; [7]): Tremor (2/6); Corticosterone as an indicator to determine the presence of inhibition [4, 8]: 0; Cortisol as an indicator to determine the presence of inhibition [5, 8]: 0
